Assays:
α-SMA protein = assay: Western blot of α-SMA protein in LX-2 cells; format: cell-based, human; settings: with TGF-β1, 6 and 12 μM, 24 h
Experimental: Stellate cell activation is a key process for liver fibrogenesis, and α-SMA expression, induced by a stimulation of TGF-β1 or other factors, is considered a reliable marker of hepatic stellate cell activation and a key biomarker for liver fibrosis. Therefore, the expression of α-SMA was also investigated. As presented in Figure 3A–C and Supplementary Table S2, in our experiments, the addition of TGF-β1 stimulated the expression of α-SMA on protein level as expected.
LX-2 cells were cultured as described above. Cells were washed with phosphate-buffered saline (PBS) and were resuspended by radioimmunoprecipitation assay (RIPA) lysis buffer for 30 min in 4 °C; the supernatant was collected after centrifugation at 12000 g for 15 min at 4 °C. Subsequently, equal amounts of protein were quantified with Bradford assay, separated using SDS-PAGE and transferred onto polyvinylidene difluoride membrane. The membranes were blocked with 5% milk in PBST for 1 h, and probed with specific primary antibodies overnight at room temperature. The membrane was washed three times by PBST, and probed with horseradish peroxidase-conjugated secondary antibodies and GAPDH. The proteins were visualized by chemiluminescence reagents. […]

COL1A1 promotor = COL1A1 promotor luciferase reporter gene assay in TGF-β1-treated LX-2 cells; format: cell-based, human; settings: Homo sapiens; for inhibition at 40 µM / inhibition at 80 µM: LX-2, 24 h; for inhibition at 40 µM: 24 h with TGF-β1, read-out: Inhibition Percentage 40 μM (inhibition rate of COL1A1 promotor's activity); for inhibition at 80 µM: 24 h with TGF-β1, read-out: Inhibition Percentage 80 μM (inhibition rate of COL1A1 promotor's activity); for IC50: read-out: IC50 (concentration required to inhibit 50% of COL1A1 promotor's activity)
Experimental: A single luciferase reporter gene detection model was applied to evaluate the inhibitory effects of all target compounds on the expression of COL1A1 promotor in human hepatic stellate LX-2 cells at the concentrations of 40 and 80 μM, taking EGCG as the positive control. The LX-2 cell lines were transfected with COL1A1 promotor luciferase plasmid pGL4.17-COL1A1P for 24 h, then simultaneously treated with TGF-β1 and a tested compound for 24 h.
Cells were maintained on Dulbecco’s Modified Eagle’s medium (DMEM), laid on 96-well plate. DMEM medium was supplemented with 10% fetal bovine serum (FBS) at 37 °C humidified atmosphere with 5% CO2. Furthermore, serum-free culture was required until the cells were confluent at 90−95%. 24 h later the cells were treated with a tested compound (40 and 80 μM) for 24 h. The COL1A1 promotor activity was detected by the Bright-Glo luciferase assay system. Alternatively, to test the acute effects of compound on luciferase activity, 24 h later the cells were lysed and the lysate was treated with a tested compound (80 μM) for 2 h, then the luciferase was detected by the Bright-Glo luciferase assay system (Promega, Madison, WI, USA).

[1] = LX-2 cell survival, sulforhodamine B (SRB) assay; format: cell-based; settings: human, LX-2 cells
Experimental: LX-2 cell survival was measured by sulforhodamine B (SRB) assay. The cells were seeded in 96-well plates at the density of 2 × 10^4/well and cultured in DMEM/GlutaMAX I medium with 10% fetal bovine serum (FBS) with 5% CO2, 37 °C. The cells were treated by the aloperine derivates for 24 h, washed by PBS for three times. Then the cells were fixed with 10% (wt/vol) trichloroacetic acid for 1 h and stained with SRB for 0.5 h. Subsequently, the protein-bound dye was dissolved in 10 mM Tris base solution after removing excess SRB dye washing repeatedly with 1% (vol/vol) acetic acid, the optical density (OD) was determined at 510 nm with a microplate reader.

COL1A1 protein = assay: Western blot of COL1A1 protein in LX-2 cells; format: cell-based; settings: Homo sapiens, 24 h, read-out: Inhibition rate of COL1A1 protein; for inhibition at 6 µM: with TGF-β1, 6 μM; for inhibition at 12 µM: with TGF-β1, 12 μM
Experimental: Then the anti-COL1A1 effects of 4n and 4p on protein level were evaluated by western blot assay.
LX-2 cells were cultured as described above. Cells were washed with phosphate-buffered saline (PBS) and were resuspended by radioimmunoprecipitation assay (RIPA) lysis buffer for 30 min in 4 °C; the supernatant was collected after centrifugation at 12000 g for 15 min at 4 °C. Subsequently, equal amounts of protein were quantified with Bradford assay, separated using SDS-PAGE and transferred onto polyvinylidene difluoride membrane. The membranes were blocked with 5% milk in PBST for 1 h, and probed with specific primary antibodies overnight at room temperature. The membrane was washed three times by PBST, and probed with horseradish peroxidase-conjugated secondary antibodies and GAPDH. The proteins were visualized by chemiluminescence reagents. Antibodies used in western blot analysis were obtained from Abcam (Cambridge, UK): anti-collagen 1 (ab34710), anti-TGF beta 1 antibody (ab179695), anti-alpha smooth muscle actin (ab32575) and Cell Signaling Technology (Danvers, MA, USA): GAPDH (D16H11) Rabbit mAb (5174).

| SMILES | Inhibition of α-SMA expression on protein level (α-SMA protein) | inhibition at 40 µM (COL1A1 promotor) [%] | inhibition at 80 µM (COL1A1 promotor) [%] | IC50 (COL1A1 promotor) [µM] | CC50 at 24 h [1] [µM] | inhibition at 6 µM (COL1A1 protein) [%] | inhibition at 12 µM (COL1A1 protein) [%] |
| --- | --- | --- | --- | --- | --- | --- | --- |
| O=C(CN1CCCC2=C[C@H]3C[C@H](CN4CCCC[C@H]34)[C@@H]21)N1c2ccccc2Oc2ccccc21 [4p, 12N-N′-Phenoxazinylcarbamoylmethyl aloperine] | dose-dependent inhibition | 72.2 ± 1.5 | 99.1 ± 1 | 16.5 ± 0.4 | 34.8 ± 2.9 | 22.7 | 79.2 |
| O=C(CN1CCCC2=C[C@H]3C[C@H](CN4CCCC[C@H]34)[C@@H]21)N(c1ccccc1)c1ccc2ccccc2c1 [4n, 12N-(N’-(Naphthalen-2-yl)-N’-phenyl)carbamoylmethyl aloperine] | dose-dependent inhibition | 99.9 ± 0.1 | 100 | 13.3 ± 0.5 | 17.1 ± 5.4 | 31.8 | 76.5 |
